This note sets out measurements from patent US5827849A, “Cyclic dericatives, pharmaceutical compositions containing these compounds and processes for preparing them” (Karl Thomae GmbH, priority 1993, dated 1998).

Molecules are shown by their SMILES. Counter-ions that a name gives are not always drawn.

This assay relates to collagen-induced thrombocyte aggregation. The assay is described as follows: Inhibition of collagen-induced thrombocyte aggregation ex vivo after oral administration. The format is in vivo. The following applies: Rhesus monkeys; oral administration of 1 mg/kg.

For the compound `CC(C)COC(=O)CCc1ccc(N2CCN(c3ccc4c(c3)CCNC4)C2=O)cc1` [Example 7, 1-[4-[2-(Isobutyloxycarbonyl)ethyl]phenyl]-3-(1,2,3,4-tetrahydroisoquinolin-6-yl)-imidazolidin-2-one-hydrochloride×1 water], the “duration of inhibition of collagen-induced thrombocyte aggregation ex vivo” value was “more than 5 hours”.
